According to publication PMC6406907, “A H2AX–CARP-1 Interaction Regulates Apoptosis Signaling Following DNA Damage” (Cancers, 2019):
No end group written: not given here. HA = not defined here

What was measured:
endogenous H2AX = assay: Anti-EGFP co-immunoprecipitation with endogenous H2AX; assay type: cell-based, human; settings: MDA-MB-468 stable subline, anti-EGFP IP, anti-H2AX WB; Figure 5C
Method: Logarithmically growing cells were either untreated or treated with different agents for various time periods. The cells were lysed to prepare protein extracts. IP was carried out by incubating approximately 1 mg of the protein lysate with appropriate antibodies. The immunoprecipitates were then analyzed by SDS-PAGE, followed by WB with respective, interacting protein. For Gst-pulldown, Gst-H2AX or various His-TAT-HA-tagged CARP-1 peptides were generated in Escherichia coli (E. coli) BL21 cells essentially as described by us previously. Briefly, the competent E. coli BL-21 (DE3) pLysS cells were transformed separately with various recombinant pGEX-4T-1 or pTAT-HA constructs. The transformed cells were then subjected to selection by combined presence of ampicillin and chloramphenicol; various isolates for each transformation were obtained and bacterial lysates were characterized for expression of fusion peptides. Cells from each isolate were grown in 4 mL of LB medium containing ampicillin only until the optical density (OD)600 reached 0.4–0.8. Expression of fusion peptides was induced over 2–4 h incubation periods after Isopropyl β-D-1-thiogalactopyranoside (IPTG) addition. […]
Figure 5 Fine Mapping of H2AX/CARP-1 interacting epitopes. […] Following stringent washing, the bound proteins were analyzed with WB using anti-HA (upper) or anti-Gst (middle) antibodies. […]

MDA-MB-468 cells = assay: Transduction/localization of TAT-tagged proteins, MDA-MB-468; assay type: cell-based, human; settings: MDA-MB-468, 300 μg/mL, confocal
Method: Cells were plated onto chamber slides one day before treatment. Following treatment of cells with respective compounds, the adherent cells were fixed with 5% formaldehyde for 10 min and then washed with phosphate buffered saline (PBS). Samples were blocked (0.5% NP-40, 5% milk powder, 1% fetal bovine serum) for 30 min. After a single wash with PBS, cells were incubated with primary antibodies for 45 to 60 min. Coverslips were washed with PBS and then incubated with secondary antibodies for another 45 to 60 min. They were then washed with PBS and mounted with 0.1 μg/mL 4′,6′-diamidino-2-phenylindole (DAPI) containing mounting solution. […]
We further tested whether and the extent to which transient and ectopic expression of CARP-1 (636–650) peptide would also interfere with the cell-growth inhibition by Adriamycin. […] The wild-type MDA-MB-468 or HeLa cells were pre-incubated with His-TAT-HA-EGFP or His-TAT-HA-CARP-1 (636–650) proteins, and presence of GFP and CARP-1 (636–650) was determined by immuno-cytochemical staining followed by photography using a confocal microscope as above. […]
Figure S9. […] Multiple cells from each of the confocal images in the γH2AX column of Figure 8C were subjected to quantitation for levels of γH2AX. The quantitation of the images of stained cells was carried out by using ImageJ software (imagej.nih.gov/ij/plugins/track/jacop2). […]

Substance | in-cell interaction with endogenous H2AX (endogenous H2AX) | cellular localization after transduction (MDA-MB-468 cells)
EGFP-CARP-1 (636–650): EGFP-tagged fusion protein stably expressed in MDA-MB-468 and HeLa sublines (PKTMKVNDLRKELES; also: EGFP fusion kept, end not given here) | robust, in vivo (in-cell) interaction | –
His-TAT-HA-CARP-1 (636–650): His-TAT-HA-tagged CARP-1 (636–650) peptide, >95% purity, commercially synthesized ({His-TAT-HA}-PKTMKVNDLRKELES; reading uncertain; UniProt Q8IX12 636-650, looked up, fragment) | – | predominantly present in the cytoplasmic region
